Test results published in patent publication US6518246B1, “Pharmaceutical composition and method for the treatment of neoplastic cells” (priority 2001, dated 2003).

Columns and labels:
[1] = Deaths of animals during treatment, Example 1; assay type: in vivo, nude mice (C57BL/6JBom-nu); details: single substance 10 μg/kg every 12 hours; dissection: metastasis / abdominal carcinosis
Experimental: (§1) Female nude mice (C57BL/6JBom-nu, Bomholtgård Breeding and Research Centre, Denmark), 8 weeks old, with a mean body weight of 22.9 g (range 20.4-25.5), were used in this investigation. The mice were kept one to each cage in a laminar filtered airflow cabinet under pathogen-free conditions. The animals were kept under a constant temperature (22±2° C.) and relative humidity (55±5%), with 12 h dark/light cycles. They were fed on a standard pellet diet (R 34, Lactamin, Vadstena, Stockholm) and given water ad libitum. All experiments were performed by aseptic techniques under laminar airflow.
(§2) The animals were divided into two groups of 10 mice each. The first group received s.c. injections of 100 μl saline solution containing a mixture of octreotide (Sandostatin®, Novartis), galanin (synthetic human galanin, Sigma, Stockholm), and serotonin (5-hydroxytryptamine, oxalate salt, Sigma) at 10 μg/kg body weight each. Injections were administered every 12 hours for five days. The second group served as controls and received only saline solution. Thirty-two mice were implanted with the tumour as described above and left for seven days. After measuring the tumour diameter, the animals were divided into four groups of eight. […]

[2] = test system: N-methyl-N′-nitroguanidine-induced rat colonic adenocarcinoma; experiment: Proliferation (PCNA immunostaining), proliferation index, Example 1; assay type: in vivo, nude mice (C57BL/6JBom-nu); details: single substance 10 μg/kg, five days; vs controls, P=0.8
Experimental: as §2
At the end of the experiments, the animals were weighed and then decapitated. The tumours were dissected carefully and their diameters and weight were determined. […]
To detect proliferation, the sections from the tumour tissue samples from all the animals were immnmostained with the avidin-biotin-complex (ABC) method (Dakopatts, Glostrup, Denmark), as described in detail earlier (E1-Salhy et al., 1993). […] Peroxidase was detected by immersing the sections in 50 ml Tris-buffer containing 25 mg diaminobenzidine tetrahydrochloride (DAB) and 10 μl of 30% H2O2 followed by slight counter-staining in Mayer's haematoxylin. […] The proliferating index was determined as described for apoptosis.

[3] = test system: asymptomatic advanced colon carcinoma; details: about 7 μ/kg/d; patients; cited from earlier work
[4] = test system: N-methyl-N′-nitroguanidine-induced rat colonic adenocarcinoma; experiment: Tumour volume and wet weight, Example 1; assay type: in vivo, nude mice (C57BL/6JBom-nu); details: single substance 10 μg/kg body weight every 12 hours for five days, vs controls; for tumour volume: P=0.4; for tumour weight: P=0.8
Experimental: as §1
Twenty mice were injected s.c. with 100 μl cell suspension containing 2×10^6 viable cells of an N-methyl-N′-nitroguanidine-induced rat colonic adenocarcinoma (provided kindly by Professor L.-O. Hafström, Departnent of Surgery, University Hospital, Umeå, Sweden). After seven days, the greatest and least diameters of the tumours were measured and the volume was calculated with the use of the following formula:
volume=(mean diameter)^333 π/6.
(§3) The animals were divided into two groups of 10 mice each. The first group received s.c. injections of 100 μl saline solution containing a mixture of octreotide (Sandostatin®, Novartis), galanin (synthetic human galanin, Sigma, Stockholm), and serotonin (5-hydroxytryptamine, oxalate salt, Sigma) at 10 μg/kg body weight each. Injections were administered every 12 hours for five days. The second group served as controls and received only saline solution. Thirty-two mice were implanted with the tumour as described above and left for seven days. After measuring the tumour diameter, the animals were divided into four groups of eight. The first group was injected with 100 μl saline solution, the second with 100 μl saline solution containing 10 μg/kg body weight octreotide, the third group with 100 μl saline solution containing 10 μg/kg body weight galanin, and the last group was injected with 100 μl saline solution containing 10 μg/kg bodyweight serotonin. Injections were administered every 12 hours for five days.
(§4) At the end of the experiments, the animals were weighed and then decapitated. The tumours were dissected carefully and their diameters and weight were determined. Three tissue samples cut perpendicular to the surface were taken from each tumour, two from the periphery and one from the middle. The tissue samples were fixed overnight in 4% buffered paraformaldehyde, embedded in paraffin wax, and cut at 5 μm.

[5] = test system: N-methyl-N′-nitroguanidine-induced rat colonic adenocarcinoma; experiment: Apoptosis by in situ hybridisation, apoptotic index, Example 1; assay type: in vivo, nude mice (C57BL/6JBom-nu); details: single substance 10 μg/kg, five days; for Apoptotic index, second in situ hybridisation kit (mean±SD): controls 3.5±0.6, P=0.15; for Apoptotic index, first in situ hybridisation kit: vs controls, P=0.2
Experimental: as §3, §4
Apoptosis was detected by in situ hybridisation using two different kits (TA200 and TA5411) from R&D Systems Inc (Minneapolis, Minn. USA). Both kits detect DNA fragmentation, but with two different detection approaches. In the first kit, fragments of DNA were detected by incorporating modified nucleotides at the 3′OH ends of the fragments, using terminal deoxynucleotidyl transferase (TdT). The incorporated 5-bromodeoxyuridine (BrdU) was detected by a biotinylated anti-BrdU antibody. A streptavidin-conjugated horsradish peroxidase specifically bound to the biotinylated antibody. In the second kit, TdT added biotinylated nucleotides to the 3′OH ends of the DNA fragments. Again, a streptavidin-conjugated horseradish peroxidase specifically bound to the biotinylated DNA fragments. The peroxidase in both kits was detected by diaminobenzidine tetrahydrochloride (DAB). The sections were counter-stained with methyl green. […]
Apoptotic index was determined using the unbiased counting frames (as described in detail previously), adapted to computer image analysis (Palmqvist et al., 1998). […] About 40 fields from each tumour, spread randomly in sections from the three tissue samples, were measured. For each tumour about 200 positive and 200 negative nuclei were counted. The labelling index (LI) was calculated as follows: […]

[6] = test system: rat colonic cancer cells; details: in vivo; cited from earlier work

Molecule | deaths during the experiment [1] | tumour proliferation index [2] | progression of the disease [3] | tumour volume [4] | tumour weight [4] | Apoptotic index, second in situ hybridisation kit (mean±SD) [5] | Apoptotic index, first in situ hybridisation kit [5] | mitotic rate of rat colonic cancer cells [6]
CC(C)C[C@H](NC(=O)CNC(=O)[C@H](CC(N)=O)NC(=O)[C@H](CCCCN)NC(=O)[C@H](CC(=O)O)NC(=O)[C@H](CO)NC(=O)[C@H](Cc1ccccc1)NC(=O)[C@H](CO)NC(=O)[C@H](CCCNC(=N)N)NC(=O)[C@H](Cc1cnc[nH]1)NC(=O)[C@H](CC(N)=O)NC(=O)CNC(=O)[C@@H](NC(=O)[C@H](C)NC(=O)[C@H](Cc1cnc[nH]1)NC(=O)[C@@H]1CCCN1C(=O)CNC(=O)[C@H](CC(C)C)NC(=O)[C@H](CC(C)C)NC(=O)[C@H](Cc1ccc(O)cc1)NC(=O)CNC(=O)[C@H](C)NC(=O)[C@H](CO)NC(=O)[C@H](CC(N)=O)NC(=O)[C@H](CC(C)C)NC(=O)[C@@H](NC(=O)[C@H](Cc1c[nH]c2ccccc12)NC(=O)CN)[C@@H](C)O)C(C)C)C(=O)N[C@H](C(=O)N[C@@H](CO)C(=O)O)[C@@H](C)O [galanin] | Two mice in the group treated with galanin died | – | – | – | – | – | – | –
octreotide | – | Neither was there any difference | no effect | no significant difference | no significant difference | 3±1.1 | no difference | –
NCCc1c[nH]c2ccc(O)cc12 [serotonin, 5-hydroxytryptamine] | – | Neither was there any difference | – | no significant difference | no significant difference | 4±0.5 | no difference | increase
